{"source": "patent US6713629B2", "about": "(dated 2004)", "data": [{"smiles": "CC1(c2ccccc2)SC(=S)N(Nc2ccccc2)C1=NOC(=O)Nc1ccc(Cl)c(Cl)c1", "note": "(stereo not shown)", "values": [{"measurement": "melting point", "value": "95 to 96", "unit": "°C"}]}]}
